Here are results for eight molecules from ChEMBL document CHEMBL1145876, “New arylpiperazine derivatives with high affinity for alpha1A, D2 and 5-HT2A receptors” (Bioorg Med Chem Lett, 2003).

A word on the Ki: it is a measure of affinity in units of concentration, obtained from inhibition or displacement. High values mean a looser hold on the target, low ones a stronger hold on the target.

Structures are written as SMILES.

Assay [1] addresses 5-hydroxytryptamine receptor 2A (Rattus norvegicus, UniProt P14842). The experiment in a line: Binding affinity towards 5-hydroxytryptamine 2A receptor using [3H]ketanserin.
The target in assay [2] is D(2) dopamine receptor (Rattus norvegicus, UniProt P61169). The experiment in a line: Binding affinity towards Dopamine receptor D2 in rat […] using [3H]spiperone. Type of assay: tissue-based.
D(2) dopamine receptor, sequence (P61169 whole entry): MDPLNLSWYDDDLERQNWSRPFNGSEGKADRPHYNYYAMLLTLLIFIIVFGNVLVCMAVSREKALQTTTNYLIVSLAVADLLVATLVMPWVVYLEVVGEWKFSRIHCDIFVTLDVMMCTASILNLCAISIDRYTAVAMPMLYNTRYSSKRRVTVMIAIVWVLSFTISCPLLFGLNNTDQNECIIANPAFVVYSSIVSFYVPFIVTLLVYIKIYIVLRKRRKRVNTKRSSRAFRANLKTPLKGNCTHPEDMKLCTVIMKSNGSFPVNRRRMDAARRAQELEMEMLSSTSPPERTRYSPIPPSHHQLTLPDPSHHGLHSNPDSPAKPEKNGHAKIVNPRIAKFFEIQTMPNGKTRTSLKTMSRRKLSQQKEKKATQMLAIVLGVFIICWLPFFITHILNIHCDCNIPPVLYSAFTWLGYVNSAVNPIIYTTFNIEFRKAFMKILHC

5-hydroxytryptamine receptor 2A, sequence (P14842 whole entry): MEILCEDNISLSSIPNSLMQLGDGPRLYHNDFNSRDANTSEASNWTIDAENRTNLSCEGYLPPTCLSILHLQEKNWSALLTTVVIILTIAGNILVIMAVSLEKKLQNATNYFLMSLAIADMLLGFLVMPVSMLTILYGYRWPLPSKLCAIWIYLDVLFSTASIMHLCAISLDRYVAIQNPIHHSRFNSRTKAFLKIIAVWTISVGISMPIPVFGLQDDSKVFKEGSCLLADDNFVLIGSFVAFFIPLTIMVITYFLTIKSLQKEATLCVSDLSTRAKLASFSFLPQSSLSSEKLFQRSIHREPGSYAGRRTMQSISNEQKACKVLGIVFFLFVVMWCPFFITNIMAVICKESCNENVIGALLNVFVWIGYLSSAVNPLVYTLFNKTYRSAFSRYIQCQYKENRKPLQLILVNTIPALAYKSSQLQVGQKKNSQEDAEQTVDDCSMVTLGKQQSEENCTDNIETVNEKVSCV

In the case of `Cc1cc(=O)oc2cc(OCCCN3CCN(c4ncccn4)CC3)ccc12`, the inhibition constant (Ki) in assay [1] was 2340 nM; in assay [2], 324 nM.
On the same counts, the results for `COc1ccccc1N1CCN(CCCOc2ccc3c(OC)cc(=O)oc3c2)CC1` are 3090 nM and 17.8 nM.
For the molecule `COc1cc(=O)oc2cc(OCCCN3CCN(c4ccccc4)CC3)ccc12`, the Ki in assay [1] is 1950 nM; in assay [2], 562 nM.
On to `COc1cc(=O)oc2cc(OCCCN3CCN(c4ccccn4)CC3)ccc12`, for which the figures for the Ki in assay [1] and in assay [2] were 537 nM and 129 nM, respectively.
In the case of `Cc1cc(=O)oc2cc(OCCCN3CCN(c4ccccn4)CC3)ccc12`, the results for the inhibition constant (Ki) in assay [1] and in assay [2] were 1070 nM and 81.3 nM, respectively.
On the same counts, the results for `COc1ccccc1N1CCN(CCCOc2ccc3c(C)cc(=O)oc3c2)CC1` are 174 nM and 11.7 nM.
Regarding `Cc1cc(=O)oc2cc(OCCCN3CCN(c4ccccc4)CC3)ccc12`, the values for the Ki in assay [1] and in assay [2] were 933 nM and 45.7 nM, respectively.
Turning to `COc1cc(=O)oc2cc(OCCCN3CCN(c4ncccn4)CC3)ccc12`, the Ki in assay [1] was 138 nM; in assay [2] it was 47.9 nM.
